Details: Cohort 1 200 mg QD

With `CC(C)NC(=O)COc1cccc(-c2nc(Nc3ccc4[nH]ncc4c3)c3ccccc3n2)c1` [Belumosudil, 2-{3-[4-(1H-indazol-5-ylamino)-2-quinazolinyl]phenoxy}-N-(propan-2-yl) acetamide] the “SAE Lipomatosis, # events” value was 1, the “SAE Lipomatosis, affected/at risk” value was 1/17 and the “SAE Metastases to meninges, # events” value was 1. The “SAE Metastases to meninges, affected/at risk” value was 1/17, the “SAE Muscular weakness, # events” value was 0 and the “SAE Muscular weakness, affected/at risk” value was 0/17. The “SAE Myelodysplastic syndrome, # events” value was 0, the “SAE Myelodysplastic syndrome, affected/at risk” value was 0/17 and the “SAE Non-cardiac chest pain, # events” value was 0. For the same compound, the “SAE Non-cardiac chest pain, affected/at risk” value was 0/17, the “SAE Obliterative bronchiolitis, # events” value was 1 and the “SAE Obliterative bronchiolitis, affected/at risk” value was 1/17. For the same compound, the “SAE Pericardial effusion, # events” value was 0, the “SAE Pericardial effusion, affected/at risk” value was 0/17 and the “SAE Pleural effusion, # events” value was 0. The “SAE Pleural effusion, affected/at risk” value was 0/17, the “SAE Pneumonia viral, # events” value was 0 and the “SAE Pneumonia viral, affected/at risk” value was 0/17. The “SAE Pneumonia, # events” value was 2, the “SAE Pneumonia, affected/at risk” value was 1/17 and the “SAE Pregnancy of partner, # events” value was 0. For the same compound, the “SAE Pregnancy of partner, affected/at risk” value was 0/17, the “SAE Proteinuria, # events” value was 1 and the “SAE Proteinuria, affected/at risk” value was 1/17. For the same compound, the “SAE Respirovirus test positive, # events” value was 0, the “SAE Respirovirus test positive, affected/at risk” value was 0/17 and the “SAE Small intestinal obstruction, # events” value was 0. For the same compound, the “SAE Small intestinal obstruction, affected/at risk” value was 0/17, the “SAE Stenotrophomonas infection, # events” value was 0 and the “SAE Stenotrophomonas infection, affected/at risk” value was 0/17. The “SAE Urinary retention, # events” value was 0, the “SAE Urinary retention, affected/at risk” value was 0/17 and the “SAE Urinary tract infection, # events” value was 0. For the same compound, the “SAE Urinary tract infection, affected/at risk” value was 0/17, the “SAE Varicella zoster virus infection, # events” value was 0 and the “SAE Varicella zoster virus infection, affected/at risk” value was 0/17. For the same compound, the “SAE total, affected/at risk” value was 5/17, the “Sinus pain: # Events” value was 2 and the “Sinus pain: Affected/At Risk” value was 2/17. For the same compound, the “Sinus pain: Affected/At Risk (%)” value was “(11.76%)”, the “Sinusitis: # Events” value was 1 and the “Sinusitis: Affected/At Risk” value was 1/17. For the same compound, the “Sinusitis: Affected/At Risk (%)” value was “(5.88%)”, the “Skin abrasion: # Events” value was 0 and the “Skin abrasion: Affected/At Risk” value was 0/17. For the same compound, the “Skin abrasion: Affected/At Risk (%)” value was “(0%)”, the “Skin lesion: # Events” value was 0 and the “Skin lesion: Affected/At Risk” value was 0/17. For the same compound, the “Skin lesion: Affected/At Risk (%)” value was “(0%)”, the “Skin papilloma: # Events” value was 1 and the “Skin papilloma: Affected/At Risk” value was 1/17. For the same compound, the “Skin papilloma: Affected/At Risk (%)” value was “(5.88%)”, the “Spinal compression fracture: # Events” value was 1 and the “Spinal compression fracture: Affected/At Risk” value was 1/17. The “Spinal compression fracture: Affected/At Risk (%)” value was “(5.88%)”, the “Squamous cell carcinoma of skin: # Events” value was 0 and the “Squamous cell carcinoma of skin: Affected/At Risk” value was 0/17. For the same compound, the “Squamous cell carcinoma of skin: Affected/At Risk (%)” value was “(0%)”, the “Stomatitis: # Events” value was 2 and the “Stomatitis: Affected/At Risk” value was 1/17. The “Stomatitis: Affected/At Risk (%)” value was “(5.88%)”, the “Superior vena cava syndrome: # Events” value was 0 and the “Superior vena cava syndrome: Affected/At Risk” value was 0/17. For the same compound, the “Superior vena cava syndrome: Affected/At Risk (%)” value was “(0%)”, the “Tachycardia: # Events” value was 0 and the “Tachycardia: Affected/At Risk” value was 0/17. The “Tachycardia: Affected/At Risk (%)” value was “(0%)”, the “Tendonitis: # Events” value was 0 and the “Tendonitis: Affected/At Risk” value was 0/17. The “Tendonitis: Affected/At Risk (%)” value was “(0%)”, the “Testicular pain: # Events” value was 1 and the “Testicular pain: Affected/At Risk” value was 1/17. The “Testicular pain: Affected/At Risk (%)” value was “(5.88%)”, the “Testicular swelling: # Events” value was 1 and the “Testicular swelling: Affected/At Risk” value was 1/17. The “Testicular swelling: Affected/At Risk (%)” value was “(5.88%)”, the “Thoracic spinal stenosis: # Events” value was 1 and the “Thoracic spinal stenosis: Affected/At Risk” value was 1/17. The “Thoracic spinal stenosis: Affected/At Risk (%)” value was “(5.88%)”, the “Thrombocytopenia: # Events” value was 0 and the “Thrombocytopenia: Affected/At Risk” value was 0/17. The “Thrombocytopenia: Affected/At Risk (%)” value was “(0%)”, the “Thrombocytosis: # Events” value was 1 and the “Thrombocytosis: Affected/At Risk” value was 1/17. For the same compound, the “Thrombocytosis: Affected/At Risk (%)” value was “(5.88%)”, the “Tinea pedis: # Events” value was 0 and the “Tinea pedis: Affected/At Risk” value was 0/17. For the same compound, the “Tinea pedis: Affected/At Risk (%)” value was “(0%)”, the “Tooth fracture: # Events” value was 0 and the “Tooth fracture: Affected/At Risk” value was 0/17. The “Tooth fracture: Affected/At Risk (%)” value was “(0%)”, the “Total Other Adverse Events: Affected/At Risk” value was 17/17 and the “Total Other Adverse Events: Affected/At Risk (%)” value was “(100%)”. For the same compound, the “Transfusion reaction: # Events” value was 1, the “Transfusion reaction: Affected/At Risk” value was 1/17 and the “Transfusion reaction: Affected/At Risk (%)” value was “(5.88%)”. For the same compound, the “Tremor: # Events” value was 3, the “Tremor: Affected/At Risk” value was 2/17 and the “Tremor: Affected/At Risk (%)” value was “(11.76%)”. For the same compound, the “Type 2 diabetes mellitus: # Events” value was 1, the “Type 2 diabetes mellitus: Affected/At Risk” value was 1/17 and the “Type 2 diabetes mellitus: Affected/At Risk (%)” value was “(5.88%)”. The “Ulcerative keratitis: # Events” value was 0, the “Ulcerative keratitis: Affected/At Risk” value was 0/17 and the “Ulcerative keratitis: Affected/At Risk (%)” value was “(0%)”. For the same compound, the “Upper respiratory tract infection: # Events” value was 16, the “Upper respiratory tract infection: Affected/At Risk” value was 9/17 and the “Upper respiratory tract infection: Affected/At Risk (%)” value was “(52.94%)”. For the same compound, the “Upper-airway cough syndrome: # Events” value was 0, the “Upper-airway cough syndrome: Affected/At Risk” value was 0/17 and the “Upper-airway cough syndrome: Affected/At Risk (%)” value was “(0%)”. The “Urinary retention: # Events” value was 0, the “Urinary retention: Affected/At Risk” value was 0/17 and the “Urinary retention: Affected/At Risk (%)” value was “(0%)”. The “Urinary tract infection: # Events” value was 0, the “Urinary tract infection: Affected/At Risk” value was 0/17 and the “Urinary tract infection: Affected/At Risk (%)” value was “(0%)”. For the same compound, the “Urinary tract pain: # Events” value was 0, the “Urinary tract pain: Affected/At Risk” value was 0/17 and the “Urinary tract pain: Affected/At Risk (%)” value was “(0%)”. For the same compound, the “Urine output decreased: # Events” value was 1, the “Urine output decreased: Affected/At Risk” value was 1/17 and the “Urine output decreased: Affected/At Risk (%)” value was “(5.88%)”. The “Vascular access complication: # Events” value was 0, the “Vascular access complication: Affected/At Risk” value was 0/17 and the “Vascular access complication: Affected/At Risk (%)” value was “(0%)”. For the same compound, the “Vertigo: # Events” value was 2, the “Vertigo: Affected/At Risk” value was 2/17 and the “Vertigo: Affected/At Risk (%)” value was “(11.76%)”. The “Vision blurred: # Events” value was 0, the “Vision blurred: Affected/At Risk” value was 0/17 and the “Vision blurred: Affected/At Risk (%)” value was “(0%)”. For the same compound, the “Vomiting: # Events” value was 4, the “Vomiting: Affected/At Risk” value was 2/17 and the “Vomiting: Affected/At Risk (%)” value was “(11.76%)”. The “Weight decreased: # Events” value was 1 and the “Weight decreased: Affected/At Risk” value was 1/17.
